From US9682062B2, “Pharmaceutical compositions and method for inhibiting angiogenesis” (Industrial Technology Research Institute, priority 2012, dated 2017) come the findings set out here.

For assay [1], the system named is human umbilical vein endothelial cells (HUVEC). Nature of the assay: Inhibition of HUVEC net structure (tube) formation on ECM/Matrigel. Format: cell-based. The settings on record: group without drug = 100%, read-out: 50% inhibiting concentration (IC50) for inhibiting tube formation. How it is done:
The lyophilized powder was dissolved in an appropriate solvent and an in vitro anti-angiogenesis was performed thereto. The ability of the extract for inhibiting net structure formation of human umbilical vein endothelial cells (HUVEC) in extracellular matrix (ECM) or growth factor reduced Matrigel was analyzed, and the forming level of the tube structure thereof was integrated to be used as an indicator for quantification.
Furthermore, by using Matrigel (BD, Cat. No. 356231) as a matrix and observing the state of human umbilical vein endothelial cells (HUVECs) constructing a net structure on the matrix, state of JC-5 (yatein) inhibiting the formation of HUVEC net structure was analyzed. […] The total length of the net structure was calculated through NIS element image analysis software (Nikon; Agent: Lin Trading Co., Ltd. Taiwan), wherein by using the total length of a net structure formed from a group without a drug addition as 100%, the state of JC-5 inhibiting the formation of HUVEC net structure was analyzed.
By using Matrigel (BD, Cat. No. 356231) as a matrix and observing the state of human umbilical vein endothelial cells (HUVECs) constructing a net structure on the matrix, the states of the crude extract (CBT-143-S) and the fractional extract (CBT-143-S-F6F7) inhibiting the formation of HUVEC net structure were analyzed. […]

The test system of assay [2] is laser-induced CNV. Nature of the assay: Laser-induced choroidal neovascularization (CNV) assay. The settings on record: 1 μg/2 ul in DMSO per eye, fluorescein angiography. Format: in vivo, brown Norway rats. An excerpt: Male rats (brown Norway rats, purchased from BioLASCO Co., Taiwan) were used. CNV lesions were induced in rat eyes by laser photocoagulation. Briefly, after the rats were anesthetized, their pupils were dilated with 1% tropicamide. A piece of 18×24 mm^2 standard cover glass served as a contact lens for application of photocoagulation. Argon laser irradiation was delivered through a slit lamp. Laser parameters were set as follows: spot size of 50 μm; power of 120 mW; and exposure duration of 0.1 second. An attempt was made to break Bruch's membrane, as clinically evidenced by central bubble formation, with or without intraretinal or choroidal hemorrhage. Four to six lesions were created between the major retinal vessels in each fundus. One day prior to laser treatment, animals received bilateral intravitreal injection of 2 ul JC-5 (1 ug/eye, N=6) or 2 ul vehicle (DMSO, N=6). Fourteen days later, a self-retaining eye speculum was placed in the eye to facilitate administration. […] Rats were analyzed under general anesthesia after dilation of the pupil and subsequent intraperitoneal injection of 0.5 ml of 2.5% fluorescein sodium (Alcon, […], Germany). […] For quantitative analysis of fluorescein leakage, the area of fluorescein leakage, determined as area of hyperfluorescence in which no normal retinal blood vessels were observed, was measured for each burn using ImageJ software (NIH, USA).

The subject of assay [3] is bFGF-induced corneal neovascularization. As to the kind of experiment: Rat corneal neovascularization (corneal pocket) assay. Type of assay: in vivo, Sprague Dawley rats. The conditions noted are these: pellet with 60 ng of bFGF plus 1 ug JC-5, day 7. On the procedure:
Pellets made of the hydron polymer (polyHEME) and a test drug or DMSO were implanted on the corneal surface of rats, and vascular formation thereof was observed.
A hydron polymer (polyHEME) was dissolved in absolute ethanol (12% w/v) in a rotator at 37° C. overnight, and then stored at room temperature before pellet making. Each pellet for the corneal pocket assay contained 60 ng of bFGF, or 1 ug JC-5 and 20 ug of sucralfate in 3 uL of casting gel, which was constituted as a 50:50 (vol/vol) mixture of hydron gel and factor-sucralfate-PBS. The casting gel was promptly pipetted onto an autoclaved, sterilized 20×20-mm piece of nylon mesh with an approximate pore size of 2×2 mm. The pellets were prepared the day before corneal surgery in a laminar flow hood under sterile conditions. Subsequently, the fibers of the mesh were pulled apart, and uniformly sized pellets of 2×2×0.4 mm^3 were selected for implantation. All procedures were performed in sterile conditions. Such pellets can be stored frozen at −20° C. for several days without loss of bioactivity. […] The eyes were exposed, and the maximum vessel length (VL) of the neovascularization zone, extending from the base of the limbal vascular plexus toward the pellet, was measured. […] The contiguous circumferential zone of neovascularization (CN) was measured in clock hours with a 360° reticule (where 30° of arc equals 1 clock hour).

For assay [4], the system named is PBMCs. As to the kind of experiment: Toxicity test for normal cells, PBMCs (Alamarblue cell viability assay). Type of assay: cell-based. The conditions noted are these: PBMC, 72 hours incubation, read-out: IC50 of a test drug for PBMCs. On the procedure:
In order to investigate whether the inhibiting effects mentioned above of the crude extract (CBT-143-S) and the fractional extract (CBT-143-S-F6F7) are due to the toxicity thereof or not, cell viability assay for normal cells, PBMCs, and growth inhibition assays for HUVECs were performed to the crude extract (CBT-143-S) and the fractional extract (CBT-143-S-F6F7), and a commercial clinical drug, sorafenib, were used for comparison as a reference.
Alamarblue is a plant dye that is usually blue. The dye decomposes during cell proliferation and reduces from blue to pink, and a rise in O.D. at 570 nm can be determined. Conversely, the more dead cells there are, the lower the O.D. value is determined to be.
PBMC cells (1×10^5 cells/well) were inoculated in a 96-well plate, and the crude extract (CBT-143-S) and the fractional extract (CBT-143-S-F6F7) samples, etc. with different concentrations (300, 100, 30, 10, 3 and 1 μg/mL) were added to the plate. After incubating for 72 hours, Alamarblue was added to the plate and incubated at 37° C. for 24 hours, and then the O.D. at 570 nm/600 nm thereof was determined by an ELISA reader. After that, the obtained O.D. values were substituted into the formal calculation as follows: […]
(The colour change of resazurin is a common sign of viable cells or microbes.)

For assay [5], the system named is growth factor (FGFb+VEGF)-induced angiogenesis. As to the kind of experiment: Matrigel plugs assay, in vivo growth factor-induced angiogenesis. The settings on record: orally administered every day 30 mg/kg/day, 14 days. Also on record: species or system BALB/c mice.
In assay [6] the test system is Hep-3B conditional medium (CM)-induced angiogenesis. As to the kind of experiment: Matrigel plugs assay, in vivo Hep-3B conditional medium-induced angiogenesis. Also on record: species or system BALB/c mice. The conditions noted are these: orally administered every day 30 mg/kg/day, 14 days. How it is done: Through a subcutaneous injection to BALB/c mice to form Matrigel plugs, an evaluation was made of whether a test substance was capable of inhibiting angiogenesis induced by vascular endothelial growth factor or Hep-3B conditional medium (CM).
Matrigel is extracted from the Engelbreth-Holm-Swarm (EHS) mouse sarcoma and contains rich extracellular matrix proteins and contains various factors need by vascular growth. In a condition of room temperature and 37° C., Matrigel is capable of polymerize as a solid gel from, and can provide a better growth environment for vascular endothelial cells.
Matrigel and vascular endothelial growth factors (FGFb+VEGF) or Hep-3B conditional medium (CM) were mixed, and then a test substance was added thereto and mixed. […]
(c) Hemoglobin content in Matrigel was quantified by a QuantiChrom™ Hemoglobin Assay Kit (DIHB-250) to evaluate the amount of neo-blood vessels in Matrigel.
After subcutaneous injection to BALB/c mice for 14 days, the Matrigel plugs in the subcutaneous tissue of the mouse was taken out and equal amount of dispase was added therein to form a mixture and reacted at 37° C. for 16 hours to dissolve intercellular substance gel. […] After the supernatant was reacted with the reagent for 5 minutes, the optical density (O.D.) at 400 nm therefrom was determined. […]

In the case of `COc1cc(C[C@H]2C(=O)OC[C@@H]2Cc2ccc3c(c2)OCO3)cc(OC)c1OC` [JC-5, yatein], in assay [1], the IC50 came out at 0.335 µM. Besides, the “CNV lesions areas compared to DMSO-treated vehicles” value in assay [2] (intravitreal, day 7 and day 14) is recorded as “significantly decreased”. In addition, the “fluorescent dye uptake and extent of CNV” value in assay [2] was “less”. Moreover, in assay [3], the “neovascular response in implanted cornea” value was “inhibited”.

Turning to `CNC(=O)c1cc(Oc2ccc(NC(=O)Nc3ccc(Cl)c(C(F)(F)F)c3)cc2)ccn1` [Sorafenib, sorafenib], the IC50 in assay [4] was determined as 10.8 ± 0.95 µM. Moreover, the “hemoglobin concentration of the Matrigel plug” value in assay [5] amounted to 27.09 ± 5.88 mg/dL; in assay [6], 25.05 ± 17.59 mg/dL.
